From US20120021476A1, “Trace Element Solution For Biogas Methods” (AGRAFERM TECHNOLOGIES AG, priority 2007, published 2012)
Where two headings read alike, the source gives them in different places. Residues, ends and D or L forms follow the SMILES beside them.

Experiments:
[1] = cited from earlier work
[2] = cited from earlier work; remark: listed apart in the source
[3] = cited from earlier work; remark: listed apart in the source
[4] = cited from earlier work; remark: listed apart in the source
[5] = cited from earlier work; remark: listed apart in the source
[6] = cited from earlier work; remark: listed apart in the source
[7] = cited from earlier work; remark: listed apart in the source
[8] = cited from earlier work; remark: listed apart in the source
[9] = Concentrations of the trace elements in the fermentation residue with different complexing agents; format: physicochemical
Source text: In Table 1 the trace element solution according to the invention contains the complexing agent in a stoichiometric amount of 60% EDTA and 60% of a phosphoric acid mixture relative to the overall amount of trace elements, which is composed of identical molar amounts of pyrophosphoric acid (H4P2O7), polyphosphoric acid (H6P4O13), metaphosphoric acid (H4P4O12), hypophosphoric Acid (H3PO2) and phosphorus acid (phosphonic acid) (H3PO3).

[10] = as above; format: physicochemical; remark: listed apart in the source
[11] = tested on: aromatic amino acid synthesis; details: cited from earlier work
[12] = cited from earlier work; remark: listed apart in the source
[13] = equimolar EDTA, neutral pH
Source text: If instead of EDTA, complexing agents are used which form complexes of two or several ligands of the complexing agent per metal atom, then a correspondingly multiple (double, multiple) molar amount of the relevant ligands must be used in order to complex the trace elements in the solution.

[14] = cited from earlier work; remark: listed apart in the source
[15] = 100 × times metal versus Simple, 50% NTA
[16] = column after 50% NTA and citrate (500%), not the invention

For `O=C(O)c1ccccc1O` [(C6H4)(OH)(COOH), Salicylic acid], the “complexing of Cu^2+ in words” value [1] is given as “very good”, the “complexing of Mn^2+ in words” value [2] is given as “very good” and the “complexing of Ni^2+ in words” value [3] is given as “very good”. For the same compound, the “complexing of Fe^3+ in words” value [4] was “excellent”, the “complexing of Co^2+ in words” value [5] was “very good” and the “complexing of Zn^2+ in words” value [6] was “good”.
In the case of `O=C(O)C(=O)O` [(COOH)2, Oxalic acid], the “complexing of Cu^2+ in words” value [1] is listed as “moderate”, the “complexing of Fe^2+ in words” value [7] is listed as “moderate” and the “complexing of Ni^2+ in words” value [3] is listed as “moderate”. For the same compound, the “complexing of Fe^3+ in words” value [4] was “good”, the “complexing of Co^2+ in words” value [5] was “moderate” and the “complexing of Ca^2+ in words” value [8] was “precipitates”. The “complexing of Zn^2+ in words” value [6] was “moderate”.
For `[Al]` [Al], the “Bio-availability (Invention)” value ([9]; 60% EDTA 60% phosphoric acids) was 100%, the Difference [10, 15] was 9931.3% and the Bio-availability [10, 16] was 100%.
In the case of `O=CC(=O)O` [C2H2O3, oxoethanoic acid], the “complexing of Cu^2+ in words” value [1] is listed as “in small amounts”, the “complexing of Fe^2+ in words” value [7] is listed as “somewhat more poorly” and the “complexing of Ni^2+ in words” value [3] is listed as “somewhat more poorly”. For the same compound, the “complexing of Co^2+ in words” value [5] was “somewhat more poorly”.
For `N[C@@H](CS)C(=O)O` [C3H7O2NS, Cysteine], the “complexing of Ni^2+ in words” value [3] is given as “extremely well” and the “complexing of Co^2+ in words” value [5] is given as “extremely well”.
For `O=C(O)CNCP(=O)(O)O` [C3H8O5NP, n-phosphomethylglicine], the “effect on aromatic amino acid synthesis” value [11] is listed as “inhibits the aromatic amino acid synthesis”.
In the case of `N[C@@H](CC(=O)O)C(=O)O` [C4H7O4N, Aspartic acid], the “complexing of Cu^2+ in words” value [1] is given as “very well”, the “complexing of Al^3+ in words” value [12] is given as “only moderately” and the “complexing of Ni^2+ in words” value [3] is given as “very well”. For the same compound, the “complexing of Zn^2+ in words” value [6] was “very well”.
For `C[C@@H](O)[C@H](N)C(=O)O` [C4H9O3N, Threonine], the “complexing of Cu^2+ in words” value [1] is listed as “very well”, the “complexing of Co^2+ in words” value [5] is listed as “good” and the “complexing of Zn^2+ in words” value [6] is listed as “good”.
In the case of `O=C(O)c1cc(=O)[nH]c(=O)[nH]1` [C5H4O4N2, Orotic acid], the “complexing of Cu^2+ in words” value [1] is given as “able to complex”, the “complexing of Ni^2+ in words” value [3] is given as “able to complex” and the “complexing of Co^2+ in words” value [5] is given as “able to complex”.
For `N[C@@H](CCC(=O)O)C(=O)O` [C5H9O4N, Glutamic acid], the “complexing of Cu^2+ in words” value [1] is given as “very well”, the “complexing of Ni^2+ in words” value [3] is given as “very well” and the “complexing of Zn^2+ in words” value [6] is given as “not so well”.
For `CC(C)[C@H](N)C(=O)O` [C5H11O2N, valine], the “complexing of Cu^2+ in words” value [1] is given as “very well”, the “complexing of Ni^2+ in words” value [3] is given as “very well” and the “complexing of Zn^2+ in words” value [6] is given as “very well”.
For `N[C@@H](Cc1c[nH]cn1)C(=O)O` [C6H9O2N3, Histidine], the “complexing of Cu^2+ in words” value [1] is listed as “very good”, the “complexing of Al^3+ in words” value [12] is listed as “good” and the “complexing of Mn^2+ in words” value [2] is listed as “good”. The “complexing of Ni^2+ in words” value [3] was “very good”, the “complexing of Co^2+ in words” value [5] was “very good” and the “complexing of Ca^2+ in words” value [8] was “poor”. The “complexing of Zn^2+ in words” value [6] was “very good”.
In the case of `O=C[C@H](O)[C@@H](O)[C@@H](O)[C@H](O)C(=O)O` [C6H10O7, galacturonic acid], the “complexing of Fe^2+ in words” value [7] is given as “very well”.
For `N[C@@H](CSSC[C@H](N)C(=O)O)C(=O)O` [C6H12O4N2S2, cystine], the “complexing of Cu^2+ in words” value [1] is given as “excellent”, the “complexing of Ni^2+ in words” value [3] is given as “very well” and the “complexing of Zn^2+ in words” value [6] is given as “very well”.
In the case of `NCCCC[C@H](N)C(=O)O` [C6H14O2N2, lysine], the “complexing of Cu^2+ in words” value [1] is listed as “very good”, the “complexing of Ni^2+ in words” value [3] is listed as “very good” and the “complexing of Zn^2+ in words” value [6] is listed as “well”.
For `N[C@@H](Cc1ccccc1)C(=O)O` [C9H11O2N, phenylalanine], the “complexing of Cu^2+ in words” value [1] is given as “very good” and the “complexing of Zn^2+ in words” value [6] is given as “very good”.
In the case of `O=C(O)CN(CCN(CC(=O)O)CC(=O)O)CC(=O)O` [C10H16O8N2, ethylenediaminetetraacetic acid], the “complexing of Cu^2+ in words” value [1] is given as “very well”, the “complexing of Fe^2+ in words” value [7] is given as “very well” and the “precipitation in the presence of H2S” value [13] is given as “no precipitation”. For the same compound, the “complexing of Mg^2+ in words” value [14] was “well”, the “complexing of Mn^2+ in words” value [2] was “very well” and the “complexing of Ni^2+ in words” value [3] was “very well”. For the same compound, the “complexing of Fe^3+ in words” value [4] was “extremely well”, the “complexing of Co^2+ in words” value [5] was “very well” and the “complexing of Ca^2+ in words” value [8] was “very well”. The “complexing of Zn^2+ in words” value [6] was “very well”.
In the case of `O=C(O)CS` [CH2(SH)COOH, mercaptoacetic acid (thio-glycol acid)], the “complexing of Fe^2+ in words” value [7] is given as “very good”, the “complexing of Mn^2+ in words” value [2] is given as “good” and the “complexing of Fe^3+ in words” value [4] is given as “excellent”. For the same compound, the “complexing of Co^2+ in words” value [5] was “very good” and the “complexing of Zn^2+ in words” value [6] was “excellent”.
In the case of `CC(=O)CC(C)=O` [CH3(C═O)CH2(C═O)CH3, acetylacetone], the “complexing of Cu^2+ in words” value [1] is given as “well”, the “complexing of Al^3+ in words” value [12] is given as “extremely well” and the “complexing of Fe^2+ in words” value [7] is given as “moderately well”. The “complexing of Mg^2+ in words” value [14] was “moderately well”, the “complexing of Mn^2+ in words” value [2] was “moderately well” and the “complexing of Ni^2+ in words” value [3] was “well”. For the same compound, the “complexing of Fe^3+ in words” value [4] was “extremely well” and the “complexing of Co^2+ in words” value [5] was “moderately well”.
For `CC(=O)C(=O)O` [CH3(C═O)COOH, oxopropionic acid (pyruvic acid, pyruvate)], the “complexing of Cu^2+ in words” value [1] is listed as “in small amounts”, the “complexing of Fe^2+ in words” value [7] is listed as “somewhat more poorly” and the “complexing of Ni^2+ in words” value [3] is listed as “somewhat more poorly”. For the same compound, the “complexing of Co^2+ in words” value [5] was “somewhat more poorly”.
In the case of `CC(O)C(=O)O` (stereo not shown) [CH3CH(OH)COOH, 2-hydroxypropionic acid (lactic acid)], the “complexing of Cu^2+ in words” value [1] is given as “in small amounts”, the “complexing of Fe^2+ in words” value [7] is given as “somewhat more poorly” and the “complexing of Ni^2+ in words” value [3] is given as “somewhat more poorly”. For the same compound, the “complexing of Co^2+ in words” value [5] was “somewhat more poorly”.
With `[Ca+2]` [Ca, calcium] the “Bio-availability (Invention)” value [9] was 100%, the Difference [10, 15] was 38.2% and the Bio-availability [10, 16] was 100%.
For `[Co]` [Co, cobalt], the “Bio-availability (Invention)” value [9] was 100%, the bio-availability in words ([10]; 50% NTA) was “hardly bio-available at all” and the Difference [10, 15] was −100.0%. For the same compound, the Bio-availability [10, 16] was 0%.
With `[Cu]` [Cu, copper] the “Bio-availability (Invention)” value ([9]; 60% EDTA 60% phosphoric acids) was 0%, the Difference [10, 15] was −100.0% and the Bio-availability [10, 16] was 0%.
For `O=C(O)CNCCNCC(=O)O` [EDDA, Ethylendiimine diacetic acid], the “complexing of Mn^2+ in words” value [2] is listed as “well”, the “complexing of Co^2+ in words” value [5] is listed as “very well” and the “complexing of Zn^2+ in words” value [6] is listed as “very well”.
For `[Fe]` [Fe, iron], the “Bio-availability (Invention)” value ([9]; 60% EDTA 60% phosphoric acids) was 100%, the Difference [10, 15] was 4260.1% and the Bio-availability [10, 16] was 100%.
In the case of `OB(O)O` [H3O3B, boric acid], the “complexing of Mg^2+ in words” value [14] is listed as “only with difficulty”, the “complexing of Fe^3+ in words” value [4] is listed as “very good” and the “complexing of Ca^2+ in words” value [8] is listed as “only with difficulty”.
For `O=P(O)(O)OP(=O)(O)O` [H4P2O7, pyrophosphoric acid], the “complexing of Mg^2+ in words” value [14] is given as “very strongly” and the “complexing of Mn^2+ in words” value [2] is given as “very strongly”.
For `O=C(O)CC(O)(CC(=O)O)C(=O)O` [HOOCCH2C(OH)(COOH)CH2COOH, Citric acid], the “complexing of Cu^2+ in words” value [1] is given as “good”, the “complexing of Ni^2+ in words” value [3] is given as “good” and the “complexing of Fe^3+ in words” value [4] is given as “good”. The “complexing of Co^2+ in words” value [5] was “good”.
For `O=C(O)CC(O)C(=O)O` (stereo not shown) [HOOCCH2CH(OH)COOH, malic acid], the “complexing of Al^3+ in words” value [12] is listed as “good” and the “complexing of Fe^3+ in words” value [4] is listed as “good”.
For `O=C(O)CC(S)C(=O)O` (stereo not shown) [HOOCCH2CH(SH)COOH, Mercaptomalic acid], the “complexing of Ni^2+ in words” value [3] is given as “well” and the “complexing of Zn^2+ in words” value [6] is given as “well”.
In the case of `CC(C)[C@H](N)C(=O)N[C@H](C(=O)O)C(C)C` [L-valyl-L-valine] (H-Val-Val-OH), the “complexing of Ni^2+ in words” value [3] is given as “very good”.
In the case of `[Mg+2]` [Mg, magnesium], the “Bio-availability (Invention)” value ([9]; 60% EDTA 60% phosphoric acids) is reported as 100%, the Difference [10, 15] is reported as 9698.1% and the Bio-availability [10, 16] is reported as 100%.
In the case of `[Mn+2]` [Mn, manganese], the “Bio-availability (Invention)” value [9] is reported as 100%, the Bio-availability [10] is reported as 31% and the Difference [10] is reported as −99.2%.
For `[Ni]` [Ni, nickel], the “Bio-availability (Invention)” value [9] was 100%, the Bio-availability [10] was 0% and the Difference [10] was −100.0%. The “available share of the added volume” value [10] was 2 ppm and the bio-availability in words [10] was “hardly bio-available at all”.
For `[Zn]` [Zn, zinc], the “Bio-availability (Invention)” value [9] was 100%, the bio-availability in words ([10]; 50% NTA) was “hardly bio-available at all” and the Difference [10, 15] was −100.0%. The Bio-availability [10, 16] was 0%.
In the case of meso-malic acid, the “complexing of Al^3+ in words” value [12] is listed as “good” and the “complexing of Fe^3+ in words” value [4] is listed as “good”.
